Numbers after ± are expanded uncertainties.
How the values were obtained:
[1] = for mass density: 298.15 K, 101.33 kPa, Liquid, Vibrating tube method; for Normal melting temperature: Crystal
[2] = refractive index (Na D-line) (dimensionless); settings: 298.15 K; 101.33 kPa; Liquid; Standard Abbe refractometry
[3] = refractive index (Na D-line) (dimensionless); xn = mol fraction of the nth substance listed; settings: 298.15 K, 101 kPa, Liquid, Standard Abbe refractometry
[4] = xn = mol fraction of the nth substance listed; settings: 298.15 K, 101 kPa, Liquid, Vibrating tube method

CCCCCCCCN(CCCCCCCC)CCCCCCCC [trioctylamine]
mass density [1]: 807.46 ± 3.6 kg/m3 | Normal melting temperature [1]: -34.42 ± 0.31 °C | refractive index [2]: 1.44758 ± 0.001

CCCCCCCCCCO [decan-1-ol]
mass density [1]: 826.59 ± 3.8 kg/m3 | Normal melting temperature [1]: 7.04 ± 0.31 °C | refractive index [2]: 1.43541 ± 0.001

CCCCCCCCO [octan-1-ol]
mass density [1]: 821.76 ± 3.7 kg/m3 | Normal melting temperature [1]: -15.30 ± 0.31 °C | refractive index [2]: 1.42754 ± 0.001

CCCCCCCCN(CCCCCCCC)CCCCCCCC [trioctylamine] + CCCCCCCCCCO
refractive index ([3]; x1 = 0.0504): 1.437 ± 0.0008 | refractive index ([3]; x1 = 0.0998): 1.4384 ± 0.0008 | refractive index ([3]; x1 = 0.2002): 1.4406 ± 0.0008 | refractive index ([3]; x1 = 0.3): 1.4424 ± 0.0008 | refractive index ([3]; x1 = 0.4002): 1.4437 ± 0.0008 | refractive index ([3]; x1 = 0.501): 1.4448 ± 0.0008 | refractive index ([3]; x1 = 0.6008): 1.4457 ± 0.0008 | refractive index ([3]; x1 = 0.7007): 1.4464 ± 0.0008 | refractive index ([3]; x1 = 0.8014): 1.4469 ± 0.0008 | refractive index ([3]; x1 = 0.9022): 1.4473 ± 0.0008 | refractive index ([3]; x1 = 0.9522): 1.4475 ± 0.0008 | mass density ([4]; x1 = 0.0504): 825.4 ± 0.7 kg/m3 | mass density ([4]; x1 = 0.0998): 824 ± 0.7 kg/m3 | mass density ([4]; x1 = 0.2002): 821.6 ± 0.6 kg/m3 | mass density ([4]; x1 = 0.3): 819.3 ± 0.6 kg/m3 | mass density ([4]; x1 = 0.4002): 817.3 ± 0.6 kg/m3 | mass density ([4]; x1 = 0.501): 815.4 ± 0.6 kg/m3 | mass density ([4]; x1 = 0.6008): 813.8 ± 0.6 kg/m3 | mass density ([4]; x1 = 0.7007): 812.3 ± 0.6 kg/m3 | mass density ([4]; x1 = 0.8014): 810.7 ± 0.6 kg/m3 | mass density ([4]; x1 = 0.9022): 809.2 ± 0.6 kg/m3 | mass density ([4]; x1 = 0.9522): 808.6 ± 0.6 kg/m3

CCCCCCCCCCO [decan-1-ol] + CCCCCCCCO
refractive index ([3]; x2 = 0.05): 1.435 ± 0.0008 | refractive index ([3]; x2 = 0.0996): 1.4346 ± 0.0008 | refractive index ([3]; x2 = 0.1996): 1.434 ± 0.0008 | refractive index ([3]; x2 = 0.2997): 1.4333 ± 0.0008 | refractive index ([3]; x2 = 0.4005): 1.4325 ± 0.0008 | refractive index ([3]; x2 = 0.5006): 1.4318 ± 0.0008 | refractive index ([3]; x2 = 0.6005): 1.431 ± 0.0008 | refractive index ([3]; x2 = 0.7006): 1.4301 ± 0.0008 | refractive index ([3]; x2 = 0.8002): 1.4293 ± 0.0008 | refractive index ([3]; x2 = 0.9): 1.4284 ± 0.0008 | refractive index ([3]; x2 = 0.9507): 1.4279 ± 0.0008

CCCCCCCCN(CCCCCCCC)CCCCCCCC [trioctylamine] + CCCCCCCCO
refractive index ([3]; x1 = 0.0497): 1.4311 ± 0.0008 | refractive index ([3]; x1 = 0.1): 1.433 ± 0.0008 | refractive index ([3]; x1 = 0.2): 1.4359 ± 0.0008 | refractive index ([3]; x1 = 0.3004): 1.4389 ± 0.0008 | refractive index ([3]; x1 = 0.4001): 1.4415 ± 0.0008 | refractive index ([3]; x1 = 0.4997): 1.4432 ± 0.0008 | refractive index ([3]; x1 = 0.6012): 1.4445 ± 0.0008 | refractive index ([3]; x1 = 0.701): 1.4453 ± 0.0008 | refractive index ([3]; x1 = 0.8002): 1.4461 ± 0.0008 | refractive index ([3]; x1 = 0.8962): 1.447 ± 0.0008 | refractive index ([3]; x1 = 0.9496): 1.4474 ± 0.0008 | mass density ([4]; x1 = 0.0497): 820.8 ± 0.6 kg/m3 | mass density ([4]; x1 = 0.1): 819.7 ± 0.6 kg/m3 | mass density ([4]; x1 = 0.2): 817.8 ± 0.6 kg/m3 | mass density ([4]; x1 = 0.3004): 816 ± 0.6 kg/m3 | mass density ([4]; x1 = 0.4001): 814.5 ± 0.6 kg/m3 | mass density ([4]; x1 = 0.4997): 813.1 ± 0.6 kg/m3 | mass density ([4]; x1 = 0.6012): 811.9 ± 0.6 kg/m3 | mass density ([4]; x1 = 0.701): 810.7 ± 0.6 kg/m3 | mass density ([4]; x1 = 0.8002): 809.7 ± 0.6 kg/m3 | mass density ([4]; x1 = 0.8962): 808.7 ± 0.6 kg/m3 | mass density ([4]; x1 = 0.9496): 808.1 ± 0.6 kg/m3
